Source: PubChem BioAssay AID248 (DTP/NCI, 2004)
Toxic doses and inconclusive results are not listed. No stated cut-off is given here; in the data, active means T/C of 150% or more; inactive means T/C below 125%.

Tested on: L1210 leukemia ip in BDF1 mice, survival T/C
Assay: NCI In Vivo Anticancer Drug Screen. Data for tumor model L1210 Leukemia (intraperitoneal) in B6D2F1 (BDF1) mice
Settings: endpoint: mean survival time, higher = longer survival
How it was run: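 Ratio derived from survival: compound-dosed mice over vehicle-dosed mice, all bearing a transplantable tumor.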

[1] = dose: 100.0 mg/kg/injection, schedule: Q01DX001 (ip), vehicle: saline with Tween-80
[2] = dose: 200.0 mg/kg/injection, schedule: Q01DX001 (ip), vehicle: saline with Tween-80
[3] = dose: 100.0 mg/kg/injection, schedule: Q01DX001 (ip), vehicle: saline
[4] = dose: 200.0 mg/kg/injection, schedule: Q01DX001 (ip), vehicle: saline
[5] = dose: 400.0 mg/kg/injection, schedule: Q01DX001 (ip), vehicle: saline
[6] = dose: 50.0 mg/kg/injection, schedule: Q01DX009 (ip), vehicle: saline with Tween-80
[7] = dose: 100.0 mg/kg/injection, schedule: Q04DX003 (ip), vehicle: saline with Tween-80
[8] = dose: 200.0 mg/kg/injection, schedule: Q04DX003 (ip), vehicle: saline with Tween-80

Measured: T/C

O=C(CSc1cc(Cl)c(Cl)cc1Cl)Nc1cccc(Cl)c1
inactive: [1] 95 % of control | [2] 98 % of control | dose: 400.0 mg/kg/injection, schedule: Q01DX001 (ip), vehicle: saline with Tween-80 90 % of control

Cc1cc(C)c(S(=O)(=O)CC(Cl)c2ccccc2)c(C)c1 (stereo unspecified)
inactive: dose: 100.0 mg/kg/injection, schedule: Q01DX001 (ip), vehicle: acetone 95 % of control | dose: 100.0 mg/kg/injection, schedule: Q04DX003 (ip), vehicle: acetone 103 % of control | dose: 200.0 mg/kg/injection, schedule: Q01DX001 (ip), vehicle: acetone 97 % of control | dose: 200.0 mg/kg/injection, schedule: Q04DX003 (ip), vehicle: acetone 97 % of control | dose: 400.0 mg/kg/injection, schedule: Q01DX001 (ip), vehicle: acetone 93 % of control | dose: 400.0 mg/kg/injection, schedule: Q04DX003 (ip), vehicle: acetone 97 % of control

O=Cc1ccc2ccc3cccc4ccc1c2c34
inactive: dose: 100.0 mg/kg/injection, schedule: Q04DX002 (ip), vehicle: saline with Tween-80 98 % of control | dose: 200.0 mg/kg/injection, schedule: Q04DX002 (ip), vehicle: saline with Tween-80 95 % of control | dose: 400.0 mg/kg/injection, schedule: Q04DX002 (ip), vehicle: saline with Tween-80 95 % of control

OC(COc1c(Cl)c(Cl)c(Cl)c(Cl)c1Cl)CN1CCN(c2ccccc2Cl)CC1 (stereo unspecified)
inactive: [3] 95 % of control | [4] 92 % of control | [5] 92 % of control

Cn1cnc([N+](=O)[O-])c1[Se]c1ncnc2c1ccn2C1OC(CO)C(O)C1O (stereo unspecified)
inactive: dose: 6.25 mg/kg/injection, schedule: Q01DX009 (ip), vehicle: saline 102 % of control | dose: 12.5 mg/kg/injection, schedule: Q01DX009 (ip), vehicle: saline 105 % of control | dose: 25.0 mg/kg/injection, schedule: Q01DX009 (ip), vehicle: saline 97 % of control

O=[N+]([O-])c1ccc(N/N=C\C2CC=C3c4ccccc4CCC3C2/C=N\Nc2ccc([N+](=O)[O-])cc2[N+](=O)[O-])c([N+](=O)[O-])c1 (stereo unspecified)
inactive: dose: 50.0 mg/kg/injection, schedule: Q01DX001 (ip), vehicle: carboxymethylcellulose (CMC) 89 % of control | dose: 100.0 mg/kg/injection, schedule: Q01DX001 (ip), vehicle: carboxymethylcellulose (CMC) 93 % of control | dose: 200.0 mg/kg/injection, schedule: Q01DX001 (ip), vehicle: carboxymethylcellulose (CMC) 103 % of control | dose: 400.0 mg/kg/injection, schedule: Q01DX001 (ip), vehicle: carboxymethylcellulose (CMC) 108 % of control

NCOC(=O)Cc1ccc(Br)cc1
inactive: dose: 100.0 mg/kg/injection, schedule: Q01DX009 (ip), vehicle: Klucel (hydroxypropylcellulose) (HPC) 98 % of control | dose: 100.0 mg/kg/injection, schedule: Q04DX003 (ip), vehicle: Klucel (hydroxypropylcellulose) (HPC) 96 % of control | dose: 200.0 mg/kg/injection, schedule: Q01DX009 (ip), vehicle: Klucel (hydroxypropylcellulose) (HPC) 101 % of control | dose: 200.0 mg/kg/injection, schedule: Q04DX003 (ip), vehicle: Klucel (hydroxypropylcellulose) (HPC) 101 % of control | dose: 400.0 mg/kg/injection, schedule: Q01DX009 (ip), vehicle: Klucel (hydroxypropylcellulose) (HPC) 96 % of control | dose: 400.0 mg/kg/injection, schedule: Q04DX003 (ip), vehicle: Klucel (hydroxypropylcellulose) (HPC) 101 % of control

O=[N+]([O-])c1ccc2nc[nH]c2c1
inactive: dose: 25.0 mg/kg/injection, schedule: Q01DX009 (ip), vehicle: saline with Tween-80 89 % of control | [6] 96 % of control

[Cl][Hg][Cl].c1cnccn1
inactive: dose: 1.0 mg/kg/injection, schedule: Q01DX009 (ip), vehicle: saline with Tween-80 105 % of control | dose: 2.0 mg/kg/injection, schedule: Q01DX009 (ip), vehicle: saline with Tween-80 93 % of control | dose: 4.0 mg/kg/injection, schedule: Q01DX009 (ip), vehicle: saline with Tween-80 105 % of control | dose: 8.0 mg/kg/injection, schedule: Q04DX003 (ip), vehicle: saline with Tween-80 88 % of control

C1CC2CC1C1OC21 (stereo unspecified)
inactive: dose: 50.0 mg/kg/injection, schedule: Q01DX001 (ip), vehicle: saline 103 % of control | [3] 100 % of control | dose: 100.0 mg/kg/injection, schedule: Q01DX009 (ip), vehicle: other 100 % of control | [4] 105 % of control | dose: 200.0 mg/kg/injection, schedule: Q01DX009 (ip), vehicle: other 101 % of control | [5] 103 % of control | dose: 400.0 mg/kg/injection, schedule: Q01DX009 (ip), vehicle: other 94 % of control

CN(C)C=Nc1ncnc2[nH]ncc12
inactive: [7] 107 % of control | dose: 150.0 mg/kg/injection, schedule: Q04DX003 (ip), vehicle: saline with Tween-80 107 % of control | [8] 123 % of control | dose: 250.0 mg/kg/injection, schedule: Q04DX003 (ip), vehicle: saline with Tween-80 123 % of control

CCNc1nc(N)nc2n[nH]nc12
inactive: [6] 95 % of control | dose: 50.0 mg/kg/injection, schedule: Q04DX003 (ip), vehicle: saline with Tween-80 98 % of control | [1] 101 % of control | dose: 100.0 mg/kg/injection, schedule: Q01DX009 (ip), vehicle: saline with Tween-80 89 % of control | [7] 101 % of control | [2] 94 % of control | dose: 200.0 mg/kg/injection, schedule: Q01DX009 (ip), vehicle: saline with Tween-80 89 % of control | [8] 98 % of control

C1=C(c2ccc3ccccc3c2)Nc2ccccc2S1
inactive: dose: 100.0 mg/kg/injection, schedule: Q04DX002 (ip), vehicle: gum acacia 96 % of control | dose: 200.0 mg/kg/injection, schedule: Q04DX002 (ip), vehicle: gum acacia 96 % of control | dose: 400.0 mg/kg/injection, schedule: Q04DX002 (ip), vehicle: gum acacia 88 % of control
